Laboratory results taken from PubChem BioAssay AID256 (DTP/NCI, 2004).
“And” between values parts separate entries of the source, which are not always exact repeats. Equal entries are not always repeated. Toxic doses and inconclusive results are not listed. How the source made its calls: active means survival T/C of 150% or more; inactive means T/C below 125% in these data.

System: CD2F1 mice, L1210 leukemia ip, survival T/C
Assay: NCI In Vivo Anticancer Drug Screen. Data for tumor model L1210 Leukemia (intraperitoneal) in CD2F1 (CDF1) mice
Settings: endpoint: mean survival time, higher = longer survival
Outline: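 In this screen, transplantable tumors were grown in mice given either the compound or its vehicle. Results were expressed as the treated measurement relative to the control measurement.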

[1] = dose: 100.0 mg/kg/injection, schedule: Q04DX003 (ip), vehicle: saline with Tween-80
[2] = dose: 200.0 mg/kg/injection, schedule: Q04DX003 (ip), vehicle: saline with Tween-80
[3] = dose: 400.0 mg/kg/injection, schedule: Q04DX003 (ip), vehicle: saline with Tween-80
[4] = dose: 100.0 mg/kg/injection, schedule: Q01DX009 (ip), vehicle: saline with Tween-80
[5] = dose: 200.0 mg/kg/injection, schedule: Q01DX009 (ip), vehicle: saline with Tween-80
[6] = dose: 25.0 mg/kg/injection, schedule: Q01DX009 (ip), vehicle: saline
[7] = dose: 50.0 mg/kg/injection, schedule: Q01DX009 (ip), vehicle: saline
[8] = dose: 50.0 mg/kg/injection, schedule: Q01DX009 (ip), vehicle: saline with Tween-80
[9] = dose: 100.0 mg/kg/injection, schedule: Q04DX003 (ip), vehicle: saline
[10] = dose: 100.0 mg/kg/injection, schedule: Q01DX001 (ip), vehicle: Klucel (hydroxypropylcellulose) (HPC)
[11] = dose: 400.0 mg/kg/injection, schedule: Q01DX001 (ip), vehicle: Klucel (hydroxypropylcellulose) (HPC)
[12] = dose: 200.0 mg/kg/injection, schedule: Q01DX001 (ip), vehicle: Klucel (hydroxypropylcellulose) (HPC)

Measured: T/C

CC(C)(C)[Si](OP(N)(=O)N(CCCl)CCCl)(c1ccccc1)c1ccccc1 (stereo not drawn)
inactive: dose: 15.6 mg/kg/injection, schedule: Q01DX001 (ip), vehicle: distilled water + Tween-80 102 % of control | dose: 31.3 mg/kg/injection, schedule: Q01DX001 (ip), vehicle: distilled water + Tween-80 110 % of control | dose: 62.5 mg/kg/injection, schedule: Q01DX001 (ip), vehicle: distilled water + Tween-80 110 % of control | dose: 125.0 mg/kg/injection, schedule: Q01DX001 (ip), vehicle: distilled water + Tween-80 122 % of control | dose: 250.0 mg/kg/injection, schedule: Q01DX001 (ip), vehicle: distilled water + Tween-80 111 % of control | dose: 500.0 mg/kg/injection, schedule: Q01DX001 (ip), vehicle: distilled water + Tween-80 117 % of control

N#Cc1cnn(-c2ccc([N+](=O)[O-])cc2)c1N
inactive: [1] 111 % of control | [2] 100 % of control | [3] 100 % of control

Nc1nc(SCc2ccccc2[N+](=O)[O-])c2[nH]cnc2n1
inactive: dose: 125.0 mg/kg/injection, schedule: Q01DX Z (ip), vehicle: carboxymethylcellulose (CMC) 102 % of control | dose: 250.0 mg/kg/injection, schedule: Q01DX Z (ip), vehicle: carboxymethylcellulose (CMC) 104 % of control | dose: 500.0 mg/kg/injection, schedule: Q01DX Z (ip), vehicle: carboxymethylcellulose (CMC) 116 % of control | dose: 1000.0 mg/kg/injection, schedule: Q01DX Z (ip), vehicle: carboxymethylcellulose (CMC) 112 % of control

COc1cccc(C#Cc2ccccc2NC(C)=O)c1
inactive: [4] 91 % of control | [5] 86 % of control | dose: 400.0 mg/kg/injection, schedule: Q01DX009 (ip), vehicle: saline with Tween-80 94 % of control

COc1cc(/C=C(\C#N)c2ccc([N+](=O)[O-])cc2)ccc1O
inactive: dose: 100.0 mg/kg/injection, schedule: Q04DX002 (ip), vehicle: saline with Tween-80 100 % of control | dose: 200.0 mg/kg/injection, schedule: Q04DX002 (ip), vehicle: saline with Tween-80 87 % of control | dose: 400.0 mg/kg/injection, schedule: Q04DX002 (ip), vehicle: saline with Tween-80 91 % of control

c1ccc(CSC2=NCCS2)cc1
inactive: [1] 108 % of control | [2] 98 % of control | [3] 97 % of control

CC(Br)C1(c2cccc([N+](=O)[O-])c2)OCCO1 (stereo not drawn)
inactive: dose: 12.0 mg/kg/injection, schedule: Q01DX009 (ip), vehicle: saline 96 % of control | [6] 112 % of control | [7] 106 % of control

CC1(C2CC(=O)OC2=O)OCCO1 (stereo not drawn)
inactive: dose: 50.0 mg/kg/injection, schedule: Q01DX001 (ip), vehicle: saline 96 % of control | dose: 100.0 mg/kg/injection, schedule: Q01DX001 (ip), vehicle: saline 102 % of control | dose: 200.0 mg/kg/injection, schedule: Q01DX001 (ip), vehicle: saline 93 % of control

NC(=O)c1c2ccccc2nn1C1OC(CO)C(O)C1O (stereo not drawn)
inactive: dose: 100.0 mg/kg/injection, schedule: Q01DX005 (ip), vehicle: saline 96 % of control | dose: 200.0 mg/kg/injection, schedule: Q01DX005 (ip), vehicle: saline 102 % of control

CC1(CO)C2CCC(CC2)C1CO (stereo not drawn)
inactive: [8] 102 % of control | dose: 100.0 mg/kg/injection, schedule: Q01DX001 (ip), vehicle: saline with Tween-80 95 % of control | [4] 96 % of control | dose: 200.0 mg/kg/injection, schedule: Q01DX001 (ip), vehicle: saline with Tween-80 94 % of control | [5] 96 % of control

CCCN(CCC)c1c([N+](=O)[O-])cc(C(N)=O)cc1[N+](=O)[O-]
inactive: dose: 12.5 mg/kg/injection, schedule: Q01DX009 (ip), vehicle: saline with Tween-80 96 % of control | dose: 25.0 mg/kg/injection, schedule: Q01DX009 (ip), vehicle: saline with Tween-80 96 % of control | [8] 90 % of control

CC(=O)OC1COC(n2c(=S)n(-c3ccccc3)c(=N)c3ccccc32)C(OC(C)=O)C1OC(C)=O (stereo not drawn)
inactive: dose: 12.5 mg/kg/injection, schedule: Q01DX005 (ip), vehicle: distilled water + Tween-80 90 % of control | dose: 25.0 mg/kg/injection, schedule: Q01DX005 (ip), vehicle: distilled water + Tween-80 87 % of control | dose: 50.0 mg/kg/injection, schedule: Q01DX005 (ip), vehicle: distilled water + Tween-80 93 % of control | dose: 200.0 mg/kg/injection, schedule: Q01DX005 (ip), vehicle: distilled water + Tween-80 92 % of control

O=C(OCCOCCOC(=O)N1CCOCC1)N1CCOCC1
inactive: [9] 100 % of control | dose: 200.0 mg/kg/injection, schedule: Q04DX003 (ip), vehicle: saline 102 % of control | dose: 400.0 mg/kg/injection, schedule: Q04DX003 (ip), vehicle: saline 96 % of control

O=C(NCCI)NC1C(O)OC(CO)C(O)C1O (stereo not drawn)
inactive: dose: 12.5 mg/kg/injection, schedule: Q01DX009 (ip), vehicle: water 93 % of control | dose: 25.0 mg/kg/injection, schedule: Q01DX009 (ip), vehicle: water 92 % of control | dose: 50.0 mg/kg/injection, schedule: Q01DX009 (ip), vehicle: water 93 % of control | dose: 100.0 mg/kg/injection, schedule: Q01DX009 (ip), vehicle: water 95 % of control | dose: 200.0 mg/kg/injection, schedule: Q01DX009 (ip), vehicle: water 89 % of control

Nc1cccc2cnccc12
inactive: [4] 100 % of control | [1] 91 % of control | [5] 98 % of control | [2] 93 % of control | [3] 96 % of control

Oc1c(O)c(Br)c(Br)c(Br)c1Br
inactive: dose: 100.0 mg/kg/injection, schedule: Q01DX001 (ip), vehicle: other 98 % of control | dose: 200.0 mg/kg/injection, schedule: Q01DX001 (ip), vehicle: other 103 % of control

COC1C(O)C(C)OC(O[C@@H]2C[C@H]3CC[C@@H]4[C@H](CC[C@]5(C)[C@@H](C6=CC(=O)OC6)CC[C@]45O)[C@@]3(C)[C@H](O)C2)C1O (stereo partly drawn)
inactive: dose: 75.0 mg/kg/injection, schedule: Q01DX001 (ip), vehicle: other 90 % of control | dose: 150.0 mg/kg/injection, schedule: Q01DX001 (ip), vehicle: other 91 % of control

N#C/C(=C(\N)c1ccccc1)c1ccccc1
inactive: [10] 93 % of control | [11] 112 % of control

OC1CCCCO1 (stereo not drawn)
inactive: [1] 100 % of control | [2] 103 % of control | [3] 103 % of control

CN(N=O)C(=O)NCC1CCC(CNC(=O)N(C)N=O)CC1 (stereo not drawn)
inactive: dose: 100.0 mg/kg/injection, schedule: Q01DX001 (ip), vehicle: carboxymethylcellulose (CMC) 96 % of control | dose: 200.0 mg/kg/injection, schedule: Q01DX001 (ip), vehicle: carboxymethylcellulose (CMC) 88 % of control and 98 % of control | dose: 300.0 mg/kg/injection, schedule: Q01DX001 (ip), vehicle: carboxymethylcellulose (CMC) 98 % of control and 93 % of control | dose: 400.0 mg/kg/injection, schedule: Q01DX001 (ip), vehicle: carboxymethylcellulose (CMC) 101 % of control and 108 % of control | dose: 500.0 mg/kg/injection, schedule: Q01DX001 (ip), vehicle: carboxymethylcellulose (CMC) 106 % of control and 107 % of control | dose: 600.0 mg/kg/injection, schedule: Q01DX001 (ip), vehicle: carboxymethylcellulose (CMC) 104 % of control | dose: 800.0 mg/kg/injection, schedule: Q01DX001 (ip), vehicle: carboxymethylcellulose (CMC) 111 % of control | dose: 1000.0 mg/kg/injection, schedule: Q01DX001 (ip), vehicle: carboxymethylcellulose (CMC) 112 % of control

CC(=O)C=C(C)[O][Tl]
inactive: dose: 75.0 mg/kg/injection, schedule: Q01DX001 (ip), vehicle: saline 102 % of control

CC(=O)OCC1OC(n2c(Br)nc3c(=O)[nH]c(N)nc32)C(OC(C)=O)C1OC(C)=O (stereo not drawn)
inactive: [1] 100 % of control | [2] 105 % of control | [3] 107 % of control

O=C(O)c1cnc2cc(Cl)ccc2n1
inactive: [8] 103 % of control | [4] 103 % of control | [1] 98 % of control | [2] 100 % of control

CC1=CC(CO)C2C(=O)NC(=O)C2C1C (stereo not drawn)
inactive: [10] 98 % of control | [12] 105 % of control | [11] 105 % of control

CCOC(=O)CCC(NC(=O)c1ccc(N(Cc2ccccc2)Cc2cnc3nc(N)nc(N)c3n2)cc1)C(=O)OCC (stereo not drawn)
inactive: [10] 87 % of control | [12] 94 % of control | [11] 97 % of control

Oc1ccccc1C=NCC[N-]CCN=Cc1ccccc1O.[Co]
inactive: dose: 12.5 mg/kg/injection, schedule: Q01DX009 (ip), vehicle: saline 115 % of control | dose: 12.5 mg/kg/injection, schedule: Q04DX003 (ip), vehicle: saline 107 % of control | [6] 103 % of control | dose: 25.0 mg/kg/injection, schedule: Q04DX003 (ip), vehicle: saline 100 % of control | [7] 97 % of control | dose: 50.0 mg/kg/injection, schedule: Q04DX003 (ip), vehicle: saline 103 % of control | [9] 107 % of control
